This note sets out measurements from article PMC9328652, “A novel class of fast‐acting antimalarial agents: Substituted 15‐membered azalides” (British Journal of Pharmacology, 2020).

The subject of the data set is human erythrocytes. The data set is described as follows: Accumulation and retention in human erythrocytes. In kind it is in vitro ADME. Conditions: after washout. As for the experimental part: The human biological samples were sourced ethically, and their research use was in accord with the terms of the informed consents under an IRB/EC approved protocol. Human erythrocytes were isolated from fresh whole blood. Blood cells were removed from the plasma by centrifugation at 1,650 g and 4°C for 15 min. The pellet was re‐suspended in saline and centrifuged at 3,000 g and at room temperature for 10 min. Supernatant and the upper part of pellet containing leukocytes were discarded. The procedure was repeated three to four times until there were no traces of leukocytes. The quality of erythrocyte isolation was determined on Sysmex SF‐3000 haematological analyser. To measure compound accumulation in cells, erythrocytes (2 × 10^9) were re‐suspended in 3‐ml RPMI 1640 (Gibco, Invitrogen) medium containing 20 μM of tested compounds and incubated at 37°C for 3 or 24 h. Cells were subsequently washed twice in ice‐cold PBS (Sigma) followed by centrifugation at 3,000 g and 4°C for 10 min. The cells were lysed by freezing in 0.5% Triton X‐100 (Sigma) in deionized water. […] Concentrations in lysates were determined by LC–MS/MS. […] To determine intracellular concentration, measured concentration in lysates was normalized to the volume of erythrocyte pellet in samples.

Take `CC[C@H]1OC(=O)[C@H](C)[C@@H](O[C@H]2C[C@@](C)(OC)[C@@H](O)[C@H](C)O2)[C@H](C)[C@@H](O[C@@H]2O[C@H](C)C[C@H](N(C)C)[C@H]2O)[C@](C)(O)C[C@@H](C)CN(C)[C@H](C)[C@@H](O)[C@]1(C)O` [Azithromycin, reference compound]: the “initially accumulated amount retained in the erythrocytes” value amounted to 10%.
